Experiment [1] can be described thus: Peripheral blood cell populations and serum cytokines of HNSCC patients after metformin treatment. The class given is in vivo, Human. Here is the method: An Unpaired 2-tailed T Test With Welch's correction was used for analysis between flow cytometry in controls versus HNSCC patients. A 2-tailed Student's t test was used to compare differences between HNSCC patients before and after treatment in flow cytometry and cytokine experiments. Differences in immune cell populations between three groups were compared by one-way ANOVA with specific post-hoc contrasts. NKCA data were compared using a paired t test. Statistical analysis was performed in GraphPad Prism (V10). Differences between groups were considered statistically significant when P<0.05.

A further experiment concerns HNC NK cells. Briefly: RNA-seq of metformin treated HNSCC patient-derived NK cells. The format is cell-based, Human. As to conditions: 12 mM metformin 24 hrs. Here is the method:
HNC NK cells were isolated as above and were treated with vehicle or 12 mM metformin for 24 hrs. Cells were washed, suspended in CyroStor, and frozen. Samples were sent to Genewiz/Azenta for standard RNA-seq profiling. Sequence reads were aligned to the current reference […] genome (GRCh38) using the STAR aligner (43,44) and the reads aligned to each known gene were counted based on the latest GENCODE definitions of gene features.

A further experiment deals with pSTAT1. As to the kind of experiment: Western blot of HNSCC NK cell lysates, pSTAT1. The format is cell-based, Human. To be noted: metformin or 50 ng CXCL1, 24 hrs, FIG. 3A/3B. As for the experimental part: NK92, Cal27, UMSCC47 and HN5 cells were cultured with drug as described. Cells were collected in RIPA (0.05% sodium deoxycholate, […], 0.1% SDS, 1% NP-40) and protein content was analyzed by Pierce BCA kit (Thermo 23225). 50 ug of protein was diluted in 1×loading buffer (SDS, bromophenol blue, 47% glycerol, Tris 0.5M pH 6.8, 0.2 mM DTT-G) and heated to 90° C. for 3 minutes. Prepared lysate was loaded into gradient gels (Biorad 4561093) and run at 85V for 1.5 hour in Biorad casing with a Biorad powerpack in 1×running buffer (Tris, Glycine, SDS). Gels were transferred on nitrocellulose and run at 100V on bench for 1 hour in 1×transfer buffer (Tris, Glycine). […] Images were analyzed in Image Studio Lite V 5.2.
To determine what those pathways could be, pathways known to be affected by both metformin and CXCL1 were investigated. pSTAT3 and mTOR are known to be increased by activation of the CXCR2 receptor, and mTOR activation can inhibit pSTAT1 expression. […] Therefore, HNSCC patient-derived NK cells treated with metformin, CXCL1, or CXCR2i (navaxarin) were collected and analyzed by western blot analysis. Head and neck squamous cell carcinoma (HNSCC) natural killer (NK) cells were treated with metformin, 50 ng CXCL1, or 10 uM CXCR2i (navarixin) for 24 hrs and collected for lysates analyzed by western blot analysis (FIG. 3A).
A general note: Immunoblotting shows a protein as a band on a membrane.

A further experiment concerns pSTAT3. As to the kind of experiment: Western blot of HNSCC NK cell lysates, pSTAT3. The class given is cell-based, Human. To be noted: metformin or 50 ng CXCL1, 24 hrs; western blot, FIG. 3A/3B. As for the experimental part: NK92, Cal27, UMSCC47 and HN5 cells were cultured with drug as described. Cells were collected in RIPA (0.05% sodium deoxycholate, […], 0.1% SDS, 1% NP-40) and protein content was analyzed by Pierce BCA kit (Thermo 23225). 50 ug of protein was diluted in 1×loading buffer (SDS, bromophenol blue, 47% glycerol, Tris 0.5M pH 6.8, 0.2 mM DTT-G) and heated to 90° C. for 3 minutes. Prepared lysate was loaded into gradient gels (Biorad 4561093) and run at 85V for 1.5 hour in Biorad casing with a Biorad powerpack in 1×running buffer (Tris, Glycine, SDS). Gels were transferred on nitrocellulose and run at 100V on bench for 1 hour in 1×transfer buffer (Tris, Glycine). Membranes were blocked in 5% BSA in TBS for 1 hr, washed, and incubated in primary diluted in 2% BSA in TBS overnight. Membranes were washed and incubated in Licor secondary (Licor 926-32211 and 925-68070) in 5% BSA in TBS for 1 hr. Membranes were washed and imaged on a Licor Odyssey Clx. Images were analyzed in Image Studio Lite V 5.2.
To determine what those pathways could be, pathways known to be affected by both metformin and CXCL1 were investigated. pSTAT3 and mTOR are known to be increased by activation of the CXCR2 receptor, and mTOR activation can inhibit pSTAT1 expression. Metformin is also hypothesized to inhibit pSTAT3 and mTOR in NK cells. Therefore, HNSCC patient-derived NK cells treated with metformin, CXCL1, or CXCR2i (navaxarin) were collected and analyzed by western blot analysis. Head and neck squamous cell carcinoma (HNSCC) natural killer (NK) cells were treated with metformin, 50 ng CXCL1, or 10 uM CXCR2i (navarixin) for 24 hrs and collected for lysates analyzed by western blot analysis (FIG. 3A).

The subject of experiment [2] is HNSCC patient-derived NK cells. Briefly: CXCL1 ELISA of NK cell culture supernatant. The format is cell-based, Human. As for the experimental part: Healthy donor and HNSCC NK cells were isolated from PBMCs and were treated for 24 hrs with vehicle or metformin. Supernatant was collected and analyzed by ELISA (analyzed by one way ANOVA. n=10).
HNSCC NK cells were isolated from PBMCs and treated with vehicle, 12 mM metformin, 50 ng CXCL1, 10 uM everolimus, or 10 uM BP-1-102 for 24 hr. The cells were washed and plated in fresh media. After 24 hrs, supernatant was collected for ELISA.

Experiment [3] relates to HNSCC patient-derived NK cells. Briefly: NK cell perforin ELISA after co-culture with Cal27 cells. The class given is cell-based, Human. As for the experimental part: For NK cell perforin assays, NK cells were treated with drug for 24 hrs, washed, and co-cultured with Cal27 cells for 4 hours. Supernatant was then collected, snap frozen in liquid nitrogen and stored at −80 until thawed for single use. For patient samples, undiluted plasma was added directly to ELISA. ELISA kit for perforin was obtained from ABCAM. ELISA was performed according to the manufacturer's protocol. Protocols included overnight coating of capture antibody diluted by lot number recommendation, 1 hr block with 400 uL 2% BSA in PBS, 2 hr sample incubation at room temperature of 100 uL sample (no dilution of sample was performed in these experiments), 2 hr […] diluted by lot number recommendation, 20 min Streptavidin incubation with 100 uL of 1:40 dilution of stock, and 15 min incubation with 100 uL included TMB ELISA reagent. 50 uL stop solution of in house 2N […] was added to stop reaction before reading at […] wavelength on plate reader. All plates included standard curve prepared per lot number recommendation with range of 35-2000 pg.
HNSCC patient-derived NK cells were treated with exogenous CXCL1 and an inhibitor of the CXCL1 receptor, CXCR2, or metformin. Patient-derived NK cells were exposed to Cal27 cells for 4 hours and supernatant was collected for perforin analysis by ELISA. Specifically, HNSCC NK cells derived from PBMCs were treated with 50 ng CXCL1, 12 mM metformin, or 10 nM CXCR2i (navarixin) and subjected to perforin against Cal27 target cells. Cells were analyzed by flow and analyzed by one way ANOVA. n=8.
Specifically, HNSCC NK cells were treated with vehicle, metformin, or 10 uM AMPK inhibitor (Dosomorphin) for 24 hrs, washed, and co-cultured with Cal27 cells for 4 hrs. Supernatant was collected for ELISA and analyzed by one way ANOVA. n=5.
HNSCC patient-derived NK cells were treated with vehicle, metformin, 10 uM mTOR inhibitor (Everolimus), or 10 uM mTOR activator (MHY1485) for 24 hrs, washed, and co-cultured with Cal27 cells for 4 hrs. Supernatant was collected for ELISA and analyzed by one way ANOVA. n=5.
As pSTAT1 can modulate perforin production, HNSCC patient-derived NK cells were treated with vehicle, […], or 10 uM of pSTAT1i inhibitor Fludarabine for 24 hrs, washed, and co-cultured with Cal27 cells for 4 hrs.
HNSCC NK cells were treated with vehicle, 12 mM metformin, 50 ng CXCL1, or 10 uM pSTAT3 inhibitor BP-1012 and co-cultured with Cal27 cells for 4 hrs. Supernatant was collected for ELISA and analyzed by one way ANOVA. n=5.

The next experiment deals with CXCL1. As to the kind of experiment: Patient plasma CXCL1 ELISA, trial NCT04414540 (pembrolizumab and metformin). The format is in vivo, Human. For orientation: An ELISA detects its analyte on a solid surface through an enzyme-linked reagent.
The mark [4] stands for this setting: patient serum cytokine profile, after metformin.
[5] abbreviates: patients, after metformin treatment.

Structures are written as SMILES. Entries after “also recorded” stand apart in the source; their conditions may differ.

As to `CN(C)C(=N)N=C(N)N` [metformin, Metformin], the “expression of NKG2D” value in experiment [1] (circulating NK and NKT cells, after metformin treatment) is listed as “increasing expression of NKG2D back to levels seen in healthy controls”. Moreover, the IL-2 entry in experiment [1] (setting [4]) is “increasing”. Besides, in experiment [1] (setting [4]), the TNF-α entry was “increasing”. Further, in experiment [1] (setting [5]), the TEM cells entry was “larger population”. The “circulating NK and NKT cell populations” value in experiment [1] (setting [5]) is “partially restored”. Moreover, the “CXCL1 expression (RNA-seq)” value in the experiment on HNC NK cells is “significantly downregulated CXCL1”. The pSTAT1 result in the experiment on pSTAT1 is listed as “increases pSTAT1; also recorded: increase in pSTAT1”. Also, in the experiment on pSTAT3, the pSTAT3 entry is listed as “decreases pSTAT3; also recorded: reduction of pSTAT3”. In experiment [2] (HNSCC patient-derived NK cells treated 24 hrs, n=10, FIG. 1), the CXCL1 supernatant levels entry was “inhibits CXCL1 release; also recorded: significantly reduced CXCL1 supernatant levels”. Moreover, the CXCL1 secretion result in experiment [2] (single agent (12 mM metformin, 10 uM everolimus or 10 uM BP-1-102) 24 hr, fresh media 24 hrs, n=5, FIG. 8) is listed as “reduces CXCL1”. The perforin result in experiment [3] (12 mM Metformin in pSTAT1-inhibited (10 uM Fludarabine) NK cells, Cal27 co-culture 4 hrs, FIG. 6) is recorded as “rescued to baseline”. For the same compound, the perforin production entry in experiment [3] (12 mM metformin or 50 ng CXCL1, Cal27 target cells 4 hours, n=8, FIG. 2) is “increased perforin”. The “circulating CXCL1” value in the experiment on CXCL1 (post-metformin and pembrolizumab combination (week 4), n=5) was “decrease was not retained”; in the experiment with CXCL1 (post-metformin only vs pre-treatment, n=5, FIG. 9) it was “decreased”; in the experiment on CXCL1 (post-metformin only vs pre-treatment, n=5, FIG. 9, listed as Metformin), “reduced circulating CXCL1”.

These data come from patent US20260102492A1, “Inhibition of Natural Killer Cell Cytoxocity” (University of Cincinnati, priority 2022, published 2026).
